24 compounds from paper PMC10683028 (Journal of Medicinal Chemistry, 2023) can be followed below.

For data set [1] the following is noted: mouse.
Description: Murine pharmacokinetic studies were performed exactly as reported.[40]
The nature of another data set: physchem. To be noted: aqueous medium at pH 7.4, pH 7.4.
The next data set can be described thus: in vitro. To be noted: PAMPA, pH 7.4.
For data set [2] the following is noted: pH 7.4.
Description: Test compounds were prepared as 0.5 mM solutions in 50:50 acetonitrile:water and analyzed by reversed-phase HPLC-UV (wavelength 254 nm) using a Phenomenex Luna C18 100 Å 150 × 4.6 mm 5 μm column with a gradient of aqueous phase (50 mM ammonium acetate, pH 7.4) and mobile phase (acetonitrile) as described.[41],[42]

Converted amounts (≈) assume the structure as drawn. Where two headings read alike, the source gives them in different places.

Description for in vitro: (§1) In vitro ADME experiments were performed exactly as reported.[38]−[40]
Description for physchem: as §1

For `COc1ccc(-c2noc(C(=O)NCCc3ccc(C(=O)N4CC(OC)C4)cc3)n2)cc1OCC1(O)CC1` [compound 80, 3-(3-((1-Hydroxycyclopropyl)methoxy)-4-methoxyphenyl)-N-(4-(3-methoxyazetidine-1-carbonyl)phenethyl)-1,2,4-oxadiazole-5-carboxamide], in data set [1] (IV 3 mg/kg), the “AUC0–480” value came to 81 µg·min/mL, the T1/2 is 24 min and the Vdss was 0.9 L/kg. Also, in data set [1] (PO 10 mg/kg), the “AUC0–480” value was determined as 4 µg·min/mL, the Cmax was found to be 61 ng/mL, the F is recorded as 1.5% and the Tmax was found to be 30 min.
The compound `COc1ccc(-c2noc(C(=O)NC(C#N)Cc3ccc(C(=O)N4CC(OC)C4)cc3)n2)cc1OCC1(O)CC1` (stereo not shown) [compound 45, N-[1-Cyano-2-[4-(3-methoxyazetidine-1-carbonyl)phenyl]ethyl]-3-[3-[(1-hydroxycyclopropyl)methoxy]-4-methoxyphenyl]-1,2,4-oxadiazole-5-carboxamide] yielded a solubility in the data set “physchem” of 152 µM (≈ 83.2 µg/mL).
`O=C(NCCc1ccc(C(=O)N2CCC2)cc1)c1nc(-c2ccc3cn[nH]c3c2)no1` [compound 66, N-(4-(Azetidine-1-carbonyl)phenethyl)-3-(1H-indazol-6-yl)-1,2,4-oxadiazole-5-carboxamide] showed a Papp in “in vitro” of 5.5 ×10⁻⁶ cm/s. The same compound showed a CHI-logDpH7.4 in data set [2] of 1.6.
As for `COc1ccc(-c2noc(C(=O)NCCc3ccc(C(=O)N4CC(OC)C4)cc3)n2)cc1OCC1CC1` [compound 77, 3-[3-(Cyclopropylmethoxy)-4-methoxyphenyl]-N-[2-[4-(3-methoxyazetidine-1-carbonyl)phenyl]ethyl]-1,2,4-oxadiazole-5-carboxamide], in “in vitro”, the Papp was found to be 3.6 ×10⁻⁶ cm/s. This compound returned a solubility in the data set “physchem” of 2 µM (≈ 1.01 µg/mL). In data set [2], this compound showed a CHI-logDpH7.4 of 2.9.
For `COc1ccc(-c2noc(C(=O)NC(C#N)Cc3ccc(C(=O)N4CCC4)cc3)n2)cc1OC` (stereo not shown) [compound 33, N-(2-(4-(Azetidine-1-carbonyl)phenyl)-1-cyanoethyl)-3-(3,4-dimethoxyphenyl)-1,2,4-oxadiazole-5-carboxamide], the Papp in the data set “in vitro” amounted to 2.8 ×10⁻⁶ cm/s. For the same compound, the CHI-logDpH7.4 in data set [2] was determined as 2.1.
In the case of `COc1ccc(-c2nnc(C(=O)NCCc3ccc(C(=O)N4CC(OC)C4)cc3)o2)cc1OC` [compound 104, 5-(3,4-Dimethoxyphenyl)-N-(4-(3-methoxyazetidine-1-carbonyl)phenethyl)-1,3,4-oxadiazole-2-carboxamide], in “in vitro”, the Papp worked out at 0.8 ×10⁻⁶ cm/s. In addition, in “physchem”, the solubility turned out to be 11 µM (≈ 5.13 µg/mL). In addition, the CHI-logDpH7.4 in data set [2] stood at 1.7.
For the compound `COc1ccc(-c2noc(C(=O)NCCc3ccc(C(=O)N4CC(F)C4)cc3)n2)cc1OC` [compound 16, 3-(3,4-Dimethoxyphenyl)-N-(4-(3-fluoroazetidine-1-carbonyl)phenethyl)-1,2,4-oxadiazole-5-carboxamide], the Papp in “in vitro” was 8.5 ×10⁻⁶ cm/s. The compound also yielded a CHI-logDpH7.4 in data set [2] of 2.2.
In the data set “in vitro”, `COc1ccc(-c2noc(C(=O)NCCc3ccc(C(=O)N4CC5(COC5)C4)cc3)n2)cc1OC` [compound 18, N-(4-(2-Oxa-6-azaspiro[3.3]heptane-6-carbonyl)phenethyl)-3-(3,4-dimethoxyphenyl)-1,2,4-oxadiazole-5-carboxamide] had a Papp of 2.6 ×10⁻⁶ cm/s. Also, the concentration in solution in the data set “physchem” (solubility) came to 12 µM (≈ 5.74 µg/mL). In data set [2], this compound had a CHI-logDpH7.4 of 1.8.
Consider `COc1ccc(-c2noc(C(=O)NCCc3ccc(C(=O)N4CCC4)cc3)n2)cc1OC` [compound 14, N-[2-[4-(Azetidine-1-carbonyl)phenyl]ethyl]-3-(3,4-dimethoxyphenyl)-1,2,4-oxadiazole-5-carboxamide], for which the Papp in “in vitro” was 7.1 ×10⁻⁶ cm/s. Also, the CHI-logDpH7.4 in data set [2] stood at 2.1.
Compound `COc1cccc(-c2noc(C(=O)NCCc3ccc(C(=O)N4CCC4)cc3)n2)c1` [compound 67, N-(4-(Azetidine-1-carbonyl)phenethyl)-3-(3-methoxyphenyl)-1,2,4-oxadiazole-5-carboxamide] returned a Papp in “in vitro” of 10.1 ×10⁻⁶ cm/s. The compound further had a CHI-logDpH7.4 in data set [2] of 2.4.
The compound `COc1ccc(-c2noc(C(=O)NC(C#N)Cc3ccc(C(=O)N4CC(OC)C4)cc3)n2)cc1OC` (stereo not shown) [compound 34, N-(1-Cyano-2-(4-(3-methoxyazetidine-1-carbonyl)phenyl)ethyl)-3-(3,4-dimethoxyphenyl)-1,2,4-oxadiazole-5-carboxamide] came in with a Papp in “in vitro” of 1.5 ×10⁻⁶ cm/s. For the same compound, in the data set “physchem”, the concentration in solution (solubility) came to 164 µM (≈ 80.6 µg/mL). Further, the CHI-logDpH7.4 in data set [2] was determined as 2.2.
As to `COc1ccc(-c2noc(C(=O)NC(C#N)Cc3ccccc3)n2)cc1OC` (stereo not shown) [compound 38, N-(1-Cyano-2-phenylethyl)-3-(3,4-dimethoxyphenyl)-1,2,4-oxadiazole-5-carboxamide], in “in vitro”, the Papp is 7.2 ×10⁻⁶ cm/s. Besides, the CHI-logDpH7.4 in data set [2] was 3.1.
The compound `O=C(NCCc1ccc(C(=O)N2CCC2)cc1)c1nc(-c2ccc3ccoc3c2)no1` [compound 64, N-(4-(Azetidine-1-carbonyl)phenethyl)-3-(benzofuran-6-yl)-1,2,4-oxadiazole-5-carboxamide] yielded an apparent permeability (Papp) in “in vitro” of 7 ×10⁻⁶ cm/s. Moreover, the CHI-logDpH7.4 in data set [2] was found to be 2.5.
The like results for `COc1ccc(-c2noc(C(=O)NCCc3ccc(C(=O)N4CCC4)nc3)n2)cc1OC` [compound 25, N-(2-(6-(Azetidine-1-carbonyl)pyridin-3-yl)ethyl)-3-(3,4-dimethoxyphenyl)-1,2,4-oxadiazole-5-carboxamide] were, in that order, 5.4 ×10⁻⁶ cm/s and 1.9.
The like results for `COc1ccc(-c2noc(C(=O)NCCc3ccc(C(=O)N4CC(OC)C4)cc3)n2)cc1OC1CC1` [compound 79, 3-(3-Cyclopropoxy-4-methoxyphenyl)-N-(4-(3-methoxyazetidine-1-carbonyl)phenethyl)-1,2,4-oxadiazole-5-carboxamide] were, in that order, 4.6 ×10⁻⁶ cm/s and 2.6.
Compound `COc1ccc(-c2noc(C(=O)NCCc3ccc(C(=O)N4CC(F)(F)C4)cc3)n2)cc1OC` [compound 17, N-(4-(3,3-Difluoroazetidine-1-carbonyl)phenethyl)-3-(3,4-dimethoxyphenyl)-1,2,4-oxadiazole-5-carboxamide] returned a Papp in “in vitro” of 6.3 ×10⁻⁶ cm/s. In addition, the CHI-logDpH7.4 in data set [2] is reported as 2.6.
`O=C(NCCc1ccc(C(=O)N2CCC2)cc1)c1nc(-c2ccc3cc[nH]c3c2)no1` [compound 65, N-(4-(Azetidine-1-carbonyl)phenethyl)-3-(1H-indol-6-yl)-1,2,4-oxadiazole-5-carboxamide] registered a Papp in the data set “in vitro” of 4.4 ×10⁻⁶ cm/s. In data set [2], this compound registered a CHI-logDpH7.4 of 2.3.
The like results for `COc1ccc(-c2noc(C(=O)NCCc3ccc(C(N)=O)cc3)n2)cc1OC` [compound 11, N-[2-(4-Carbamoylphenyl)ethyl]-3-(3,4-dimethoxyphenyl)-1,2,4-oxadiazole-5-carboxamide] were, in that order, 2.9 ×10⁻⁶ cm/s and 1.7.
The like results for `O=C(NCCc1ccc(C(=O)N2CCC2)cc1)c1nc(-c2ccc3nc[nH]c3c2)no1` [compound 63, N-(4-(Azetidine-1-carbonyl)phenethyl)-3-(1H-benzo[d]imidazol-6-yl)-1,2,4-oxadiazole-5-carboxamide] were, in that order, 0.7 ×10⁻⁶ cm/s and 1.3.
In the data set “in vitro”, `COc1ccc(-c2noc(C(=O)NC(C#N)Cc3ccc(C(=O)N4CC5(COC5)C4)cc3)n2)cc1OC` (stereo not shown) [compound 44, N-(2-(4-(2-Oxa-6-azaspiro[3.3]heptane-6-carbonyl)phenyl)-1-cyanoethyl)-3-(3,4-dimethoxyphenyl)-1,2,4-oxadiazole-5-carboxamide] came in with a Papp of 0.6 ×10⁻⁶ cm/s. Further, in data set [1] (PO 10 mg/kg), the “AUC0–480” value was determined as 5 µg·min/mL, the Cmax is 56 ng/mL and the Tmax came to 300 min. Besides, in data set [2], the CHI-logDpH7.4 was 2.1.
Take `COc1ccc(-c2noc(C(=O)NC[C@H](C)c3ccccc3)n2)cc1OC` [compound 8, 3-(3,4-Dimethoxyphenyl)-N-[(2R)-2-phenylpropyl]-1,2,4-oxadiazole-5-carboxamide]: the Papp in the data set “in vitro” stood at 5.5 ×10⁻⁶ cm/s. This compound also returned a CHI-logDpH7.4 in data set [2] of 3.3.
In the case of `COc1ccc(-c2noc(C(=O)NCCc3ccc(C(=O)N4CC(OC)C4)cc3)n2)cc1OC` [compound 15, 3-(3,4-Dimethoxyphenyl)-N-(4-(3-methoxyazetidine-1-carbonyl)phenethyl)-1,2,4-oxadiazole-5-carboxamide], in data set [1] (IV 3 mg/kg), the “AUC0–480” value was found to be 56 µg·min/mL, the T1/2 stood at 18 min and the Vdss was 1.1 L/kg. Besides, in data set [1] (PO 200 mg/kg), the “AUC0–480” value worked out at 48 µg·min/mL, the Cmax is 151 ng/mL, the F was found to be 1.5% and the Tmax was found to be 120 min. In data set [2], this compound had a CHI-logDpH7.4 of 2.1.
In the case of `COc1ccc(-c2noc(C(=O)NCCc3ccccc3)n2)cc1OC` [compound 106], the concentration in solution in “physchem” (solubility) came to 51 µM (≈ 18 µg/mL).
In the case of `COc1ccc(-c2noc(C(=O)NCCc3cccnc3)n2)cc1OC` [compound 5, 3-(3,4-Dimethoxyphenyl)-N-[2-(3-pyridyl)ethyl]-1,2,4-oxadiazole-5-carboxamide], the Papp in the data set “in vitro” came out at 7.7 ×10⁻⁶ cm/s. For the same compound, the CHI-logDpH7.4 in data set [2] was 1.8.
